Where “and” joins values, the source holds several entries; their conditions need not be identical. Equal entries are not always repeated. Where two headings read alike, the source gives them in different places.
Experiments:
[1] = Pharmacokinetics after intravenous administration of CK in rats (10 mg/kg); format: in vivo, Sprague-Dawley rats; settings: male rats, i.v. 10 mg/kg; for MRT last: read-out: MRT(0-t); for half-life: read-out: t1/2z (converted)
Method: All samples were analyzed with a triple quadrupole LC-MS/MS (API 4000 LC-MS/MS, AB Sciex, Framingham, MA, USA) coupled with an Agilent 1200 HPLC system (Agilent Technologies, Palo Alto, CA, USA). The MS was equipped with an electrospray system (ESI). The N2 gas temperature and ion-spray voltage were set to 550 °C and 4.5 kV, respectively. CK was measured in multiple reaction monitoring (MRM) mode using a negative electrospray ionization source at m/z 667.4 → 621.2 for CK (CID 25.6 v) and m/z 271.2 → 228.8 for internal standard (IS, (E)-5-(4-fluorostyryl)-2-isopropylbenzene-1,3-diol, Welichem Biotech Inc., Wayburne Drive Burnaby, BC, Canada) (CID 28.3 v) with a dwell time of 0.1 s.
Rats were divided randomly into 5 groups of six animals each (sex in half) and given 7 days to acclimatize to the facility before the experiments began. The four forms of CK were suspended in 0.5% sodium carboxymethyl cellulose (CMC-Na) solution and orally administered to rats at a dose of 20 mg/kg. A CK solution in a mixed solvent of dimethyl sulfoxide (DMSO)/castor oil/physiologic saline (3:5:92, v/v) was intravenously administered to the remaining group via the tail vein at a dose of 10 mg/kg. Blood samples were collected by retro-orbital puncture at the following times: 0.167, 0.333, 0.667, 1, 2, 3, 4, 6, 9, 12, and 24 h for the oral administration, and at 0.0083, 0.05, 0.133, 0.25, 0.5, 1, 2, 4, 6, and 9 h for the intravenous administration. Plasma samples were obtained by centrifuging a heparinized blood tube at 4000 rpm for 5 min and then stored at −70 °C until analysis.
The procedure for drug extraction from plasma samples was as follows: 0.2 mL acetonitrile, 0.2 mL plasma sample, and 10 μL IS (1 µg/mL) were added into a 1.5 mL Eppendorf-type tube. This mixture was vortexed for 1 min and then treated with 0.8 mL of methyl tert-butyl ether (MTBE) to precipitate the plasma proteins. After a mechanical vortex for 1 min and subsequent centrifugation (4000 rpm, 5 min), 0.8 mL of the supernatant was transferred and blow-dried with N2 at 40 °C in a water bath. Finally, the residue was dissolved in 120 μL of mobile phase, and then 10 μL was subjected to HPLC for analysis. […] Intra- and inter-day precision and accuracy never exceeded 15% by analyzing six replicate samples.
The CK pharmacokinetic parameters in rats, including the area under the curve (AUC(0–t) and AUC(0–∞)), mean residence time (MRT(0–t) and MRT(0–∞)), maximum concentration (Cmax), time to maximum concentration (Tmax), half-life (t1/2), apparent distribution volume (V), and total plasma clearance (CL), were derived from plasma concentration-time curves by using non-compartmental analysis (NCA) with DAS 2.0 software (Drug And Statistics, Mathematical Pharmacology Professional Committee of China, Shanghai, China). The absolute bioavailability (Fabs) was calculated from the dose-adjusted ratio of AUCp.o. to AUCi.v.. One-way analysis of variance (ANOVA) by SPSS 11.5 (SPSS Inc., Chicago, IL, USA) was conducted to compare the primary PK parameters.

[2] = cited from earlier work
[3] = male, Sprague-Dawley, rat, plasma, iv, 10 mg/kg, Mean±SD, read-out: Plasma concentrations of CK
[4] = male, Sprague-Dawley, rat, plasma, iv, 10 mg/kg, individual rats 1-3, read-out: Plasma concentrations of CK
[5] = male, Sprague-Dawley, rat, plasma, iv, 10 mg/kg, Mean±SD
[6] = male, Sprague-Dawley, rat, plasma, iv, 10 mg/kg, individual rats 1-3

For `CC(C)=CCCC(C)(OC1OC(CO)C(O)C(O)C1O)C1CCC2(C)C1C(O)CC1C3(C)CCC(O)C(C)(C)C3CCC12C` [CK, 20-O-β-D-glucopyranosyl-20(S)-protopanaxadiol], the “Plasma concentrations of CK” value ([1]; 1 h, individual rats 1-3, 10 mg/kg) was 75.42 ng/mL and 107.64 ng/mL, the “Plasma concentrations of CK” value ([1]; 2 h, individual rats 1-3, 10 mg/kg) was 41.16 ng/mL and 54.90 ng/mL and the “Plasma concentrations of CK” value ([1]; 4 h, individual rats 1-3, 10 mg/kg) was 42.63 ng/mL and 32.27 ng/mL and 85.89 ng/mL. For the same molecule, the “Plasma concentrations of CK” value ([1]; 6 h, individual rats 1-3, 10 mg/kg) was 14.03 ng/mL and 27.30 ng/mL, the “Plasma concentrations of CK” value ([1]; 9 h, individual rats 1-3, 10 mg/kg) was 11.73 ng/mL and 16.36 ng/mL and the CLz/F ([1]; Mean±SD) was 90 ± 18 mL/min/kg. For the same molecule, the Vz/F ([1]; Mean±SD) was 24.21 ± 7.69 L/kg, the “AUC(0-t)” value ([1]; individual rats 1-3, 10 mg/kg) was 2963.73 ng·h/mL and 3980.16 ng·h/mL and the “AUC(0-∞)” value ([1]; individual rats 1-3, 10 mg/kg) was 3012.98 ng·h/mL and 4074.46 ng·h/mL. For the same molecule, the CLz/F ([1]; individual rats 1-3, 10 mg/kg) was 77.7 mL/min/kg and 111 mL/min/kg and 81.8 mL/min/kg, the “MRT(0-t)” value ([1]; individual rats 1-3, 10 mg/kg) was 19.2 min and 27.2 min and the “MRT(0-∞)” value ([1]; individual rats 1-3, 10 mg/kg) was 22.8 min and 32.4 min and 47.4 min. For the same molecule, the Vz/F ([1]; individual rats 1-3, 10 mg/kg) was 15.34 L/kg and 28.92 L/kg and 28.37 L/kg, the t1/2z ([1]; individual rats 1-3, 10 mg/kg) was 181 min and 241 min and the concentration at 0.5 min [1, 3] was 71700 ± 5620 ng/mL. For the same molecule, the concentration at 0.5 min [1, 4] was 78100 ng/mL, the concentration at 0.05 h [1, 3] was 17100 ± 5230 ng/mL and the concentration at 0.05 h [1, 4] was 21700 ng/mL. For the same molecule, the concentration at 8 min ([1]; male, Sprague-Dawley, rat, plasma, iv, 10 mg/kg, 8 min, Mean±SD, read-out: Plasma concentrations of CK) was 2280 ± 940 ng/mL, the concentration at 0.25 h [1, 3] was 1080 ± 359 ng/mL and the concentration at 0.25 h [1, 4] was 1260 ng/mL. It also gave a concentration at 0.5 h [1, 3] of 333 ± 103 ng/mL, a concentration at 0.5 h [1, 4] of 393 ng/mL and a concentration at 1 h ([1]; male, Sprague-Dawley, rat, plasma, iv, 10 mg/kg, 1 h, Mean±SD, read-out: Plasma concentrations of CK) of 95.5 ± 17.5 ng/mL. It also gave a concentration at 1 h ([1]; male, Sprague-Dawley, rat, plasma, iv, 10 mg/kg, 1 h, individual rats 1-3, read-out: Plasma concentrations of CK) of 103 ng/mL, a concentration at 2 h ([1]; male, Sprague-Dawley, rat, plasma, iv, 10 mg/kg, 2 h, Mean±SD, read-out: Plasma concentrations of CK) of 52.1 ± 9.87 ng/mL and a concentration at 2 h ([1]; male, Sprague-Dawley, rat, plasma, iv, 10 mg/kg, 2 h, individual rats 1-3, read-out: Plasma concentrations of CK) of 60.3 ng/mL. For the same molecule, the concentration at 4 h ([1]; male, Sprague-Dawley, rat, plasma, iv, 10 mg/kg, 4 h, Mean±SD, read-out: Plasma concentrations of CK) was 53.6 ± 28.4 ng/mL, the concentration at 6 h ([1]; male, Sprague-Dawley, rat, plasma, iv, 10 mg/kg, 6 h, Mean±SD, read-out: Plasma concentrations of CK) was 20.3 ± 6.66 ng/mL and the concentration at 6 h ([1]; male, Sprague-Dawley, rat, plasma, iv, 10 mg/kg, 6 h, individual rats 1-3, read-out: Plasma concentrations of CK) was 19.7 ng/mL. For the same molecule, the concentration at 9 h ([1]; male, Sprague-Dawley, rat, plasma, iv, 10 mg/kg, 9 h, Mean±SD, read-out: Plasma concentrations of CK) was 12.4 ± 3.64 ng/mL, the concentration at 9 h ([1]; male, Sprague-Dawley, rat, plasma, iv, 10 mg/kg, 9 h, individual rats 1-3, read-out: Plasma concentrations of CK) was 9.16 ng/mL and the AUC(0-inf) [1, 5] was 3790 ± 685 ng·h/mL. The AUC(0-t) ([1]; male, Sprague-Dawley, rat, plasma, iv, 10 mg/kg, Mean±SD, read-out: AUC(0-t)) was 3740 ± 684 ng·h/mL, the MRT last [1, 5] was 21.6 ± 4.8 min and the MRT inf ([1]; male, Sprague-Dawley, rat, plasma, iv, 10 mg/kg, Mean±SD, read-out: MRT(0-∞)) was 34.2 ± 12.6 min. For the same molecule, the half-life [1, 5] was 186 ± 52.2 min, the AUC(0-inf) [1, 6] was 4290 ng·h/mL and the AUC(0-t) ([1]; male, Sprague-Dawley, rat, plasma, iv, 10 mg/kg, individual rats 1-3, read-out: AUC(0-t)) was 4260 ng·h/mL. The MRT last [1, 6] was 18 min, the half-life [1, 6] was 137 min and the “exposure levels of CK in females versus males” value ([2]; healthy Chinese subjects) was “higher”. For the same molecule, the “dose-normalized Cmax and t1/2 in females versus males” value ([2]; multiple-dose trial in humans, day 1 and day 15) was “significantly higher”.

Reference: article PMC8037814, “Polymorphic Characterization, Pharmacokinetics, and Anti-Inflammatory Activity of Ginsenoside Compound K Polymorphs” (Molecules, 2021)
